Data as given in PubChem BioAssay AID274 (DTP/NCI, 2004).
“And” between values parts separate entries of the source, which are not always exact repeats. Equal entries are not always repeated. Toxic doses and inconclusive results are not listed. How the source made its calls: active means survival T/C of 150% or more; inactive means T/C below 125% in these data.

System: BDF1 mice, Lewis lung carcinoma iv, survival T/C
Assay: NCI In Vivo Anticancer Drug Screen. Data for tumor model Lewis Lung Carcinoma (intravenous) in B6D2F1 (BDF1) mice
Settings: endpoint: median survival time, higher = longer survival
Experimental: The antitumor activity of compounds was measured in mice bearing transplantable tumors. Survival or tumor size were measured and the results are expressed as the measurement made in the treated group (T) divided by the measurement made in the vehicle treated control group (C). The tumor model used in this assay is Lewis Lung Carcinoma (intravenous) in B6D2F1 (BDF1) mice

[1] = dose: 50.0 mg/kg/injection, schedule: Q01DX009 (ip), vehicle: Klucel (hydroxypropylcellulose) (HPC)
[2] = dose: 100.0 mg/kg/injection, schedule: Q01DX009 (ip), vehicle: Klucel (hydroxypropylcellulose) (HPC)
[3] = dose: 12.5 mg/kg/injection, schedule: Q01DX009 (ip), vehicle: saline
[4] = dose: 25.0 mg/kg/injection, schedule: Q01DX009 (ip), vehicle: saline
[5] = dose: 12.5 mg/kg/injection, schedule: Q01DX009 (ip), vehicle: saline with Tween-80
[6] = dose: 25.0 mg/kg/injection, schedule: Q01DX009 (ip), vehicle: saline with Tween-80
[7] = dose: 50.0 mg/kg/injection, schedule: Q01DX009 (ip), vehicle: saline with Tween-80
[8] = dose: 100.0 mg/kg/injection, schedule: Q01DX009 (ip), vehicle: saline with Tween-80
[9] = dose: 200.0 mg/kg/injection, schedule: Q01DX009 (ip), vehicle: saline with Tween-80
[10] = dose: 50.0 mg/kg/injection, schedule: Q01DX009 (ip), vehicle: saline
[11] = dose: 100.0 mg/kg/injection, schedule: Q01DX009 (ip), vehicle: saline
[12] = dose: 200.0 mg/kg/injection, schedule: Q01DX009 (ip), vehicle: saline
[13] = dose: 25.0 mg/kg/injection, schedule: Q01DX009 (ip), vehicle: Klucel (hydroxypropylcellulose) (HPC)
[14] = dose: 200.0 mg/kg/injection, schedule: Q01DX009 (ip), vehicle: Klucel (hydroxypropylcellulose) (HPC)
[15] = dose: 1.0 mg/kg/injection, schedule: Q01DX009 (ip), vehicle: saline
[16] = dose: 2.0 mg/kg/injection, schedule: Q01DX009 (ip), vehicle: saline
[17] = dose: 4.0 mg/kg/injection, schedule: Q01DX009 (ip), vehicle: saline
[18] = dose: 16.0 mg/kg/injection, schedule: Q01DX009 (ip), vehicle: saline
[19] = dose: 3.13 mg/kg/injection, schedule: Q01DX009 (ip), vehicle: Klucel (hydroxypropylcellulose) (HPC)
[20] = dose: 6.25 mg/kg/injection, schedule: Q01DX009 (ip), vehicle: Klucel (hydroxypropylcellulose) (HPC)
[21] = dose: 12.5 mg/kg/injection, schedule: Q01DX009 (ip), vehicle: Klucel (hydroxypropylcellulose) (HPC)

Measured: T/C

CCCCCCCCCCCCCCC/C([O-])=N/[N+](C)(C)CC(C)O (stereo not drawn)
inactive: dose: 12.5 mg/kg/injection, schedule: Q01DX001 (ip), vehicle: saline 95 % of control | dose: 25.0 mg/kg/injection, schedule: Q01DX001 (ip), vehicle: saline 96 % of control | dose: 50.0 mg/kg/injection, schedule: Q01DX001 (ip), vehicle: saline 97 % of control | dose: 100.0 mg/kg/injection, schedule: Q01DX001 (ip), vehicle: saline 104 % of control | dose: 200.0 mg/kg/injection, schedule: Q01DX001 (ip), vehicle: saline 108 % of control | dose: 400.0 mg/kg/injection, schedule: Q01DX001 (ip), vehicle: saline 102 % of control

CCOC(=O)c1c[nH]c2oc(/C=N/N3CC(CN4CCOCC4)OC3=O)cc2c1=O (stereo not drawn)
inactive: dose: 6.25 mg/kg/injection, schedule: Q01DX009 (ip), vehicle: suspension in saline 108 % of control | dose: 12.5 mg/kg/injection, schedule: Q01DX009 (ip), vehicle: suspension in saline 105 % of control | dose: 25.0 mg/kg/injection, schedule: Q01DX009 (ip), vehicle: suspension in saline 104 % of control | dose: 50.0 mg/kg/injection, schedule: Q01DX009 (ip), vehicle: suspension in saline 114 % of control | dose: 100.0 mg/kg/injection, schedule: Q01DX009 (ip), vehicle: suspension in saline 106 % of control

COC1C(CO)OC(n2cnc3c(=S)nc(N)[nH]c32)C1O (stereo not drawn)
inactive: [1] 97 % of control | [2] 108 % of control

COc1cc(NCCCCCCCNC(C)C)c2nccc(C)c2c1
inactive: dose: 3.12 mg/kg/injection, schedule: Q01DX009 (ip), vehicle: saline 94 % of control | dose: 6.25 mg/kg/injection, schedule: Q01DX009 (ip), vehicle: saline 100 % of control | [3] 98 % of control | [4] 108 % of control

Cc1ccc2c(c1)N=C(Nc1ccccc1)N=S2(C)=O (stereo not drawn)
inactive: dose: 6.25 mg/kg/injection, schedule: Q01DX009 (ip), vehicle: saline with Tween-80 102 % of control | [5] 102 % of control | [6] 111 % of control | [7] 112 % of control | [8] 115 % of control | [9] 116 % of control

C[C@@H]1CN(C(=O)CCOS(C)(=O)=O)[C@@H](C)CN1C(=O)CCOS(C)(=O)=O
inactive: [7] 93 % of control | [8] 101 % of control

Cc1ccccc1N(CC1CO1)CC1CO1 (stereo not drawn)
inactive: [3] 106 % of control | [4] 103 % of control | [10] 109 % of control | [11] 100 % of control | [12] 110 % of control

COc1cc(OC)c(OC)cc1/C=C\c1ccnc2ccccc12
inactive: [13] 113 % of control | [1] 105 % of control | [2] 100 % of control | [14] 107 % of control

N/C(=N\O)c1cn(C2OC(CO)C(O)C2O)c2ncnc(N)c12 (stereo not drawn)
inactive: [15] 91 % of control | [16] 88 % of control | [17] 98 % of control

c1nc(N2CC2)c2cnn(C3CCCCO3)c2n1 (stereo not drawn)
inactive: [13] 107 % of control | [1] 100 % of control | [2] 101 % of control

Nc1ccn(C2OC(COP(=O)(O)O)C(O)C2O)c(=O)n1 (stereo not drawn)
inactive: [18] 121 % of control | dose: 32.0 mg/kg/injection, schedule: Q01DX009 (ip), vehicle: saline 106 % of control

CCC1(O)CC2CN(CCc3c([nH]c4ccccc34)C(C(=O)OC)(c3cc4c(cc3OC)N(C)C3C(O)(C(=O)NCCSSCCNC(=O)C5(O)C(O)C6(CC)C=CCN7CCC8(c9cc(C%10(C(=O)OC)CC%11CN(CCc%12c%10[nH]c%10ccccc%12%10)CC(O)(CC)C%11)c(OC)cc9N(C)C58)C76)C(O)C5(CC)C=CCN6CCC43C65)C2)C1 (stereo not drawn)
inactive: dose: 0.39 mg/kg/injection, schedule: Q01DX009 (ip), vehicle: saline 93 % of control | dose: 0.65 mg/kg/injection, schedule: Q01DX009 (ip), vehicle: saline 93 % of control

CCOC(=O)C(N)CSC(=O)NC (stereo not drawn)
inactive: [4] 105 % of control | [10] 98 % of control | [11] 96 % of control | [12] 96 % of control | dose: 400.0 mg/kg/injection, schedule: Q01DX009 (ip), vehicle: saline 113 % of control

Nc1nc(/C=C(/O)c2ccccc2)c2ncn(C3OC(CO)C(O)C3O)c2n1 (stereo not drawn)
inactive: [3] 109 % of control | [4] 107 % of control | [10] 102 % of control | [11] 104 % of control

CC(=O)Nc1ccc(Nc2ccc(C(=C3C=CC(=[N+](C)CCC#N)C=C3)c3ccc(N(C)CCC#N)cc3)cc2)cc1
inactive: [5] 101 % of control | [6] 110 % of control

CCCCCCCCCCCC(c1ccccc1)[N+](C)(C)Cc1ccccc1 (stereo not drawn)
inactive: [15] 98 % of control | [16] 124 % of control

CCO/C=C1\SC(=S)N(c2ccccc2C)C1=O
inactive: [5] 96 % of control | [6] 94 % of control | [7] 100 % of control | [8] 106 % of control | [9] 99 % of control

CCc1c(CC(=O)O)c2cc(C)ccc2n1Cc1ccc(Cl)cc1
inactive: dose: 3.12 mg/kg/injection, schedule: Q01DX009 (ip), vehicle: Klucel (hydroxypropylcellulose) (HPC) 110 % of control | [19] 119 % of control | [20] 105 % of control and 108 % of control | [21] 100 % of control and 117 % of control | [13] 91 % of control and 99 % of control | [1] 95 % of control and 119 % of control | [2] 112 % of control and 88 % of control

CC(C)NNC(=O)c1ccncc1
inactive: dose: 19.4 mg/kg/injection, schedule: Q01DX007 (ip), vehicle: Klucel (hydroxypropylcellulose) (HPC) 95 % of control | dose: 32.4 mg/kg/injection, schedule: Q01DX007 (ip), vehicle: Klucel (hydroxypropylcellulose) (HPC) 91 % of control | dose: 54.0 mg/kg/injection, schedule: Q01DX007 (ip), vehicle: Klucel (hydroxypropylcellulose) (HPC) 95 % of control | dose: 90.0 mg/kg/injection, schedule: Q01DX007 (ip), vehicle: Klucel (hydroxypropylcellulose) (HPC) 96 % of control | dose: 150.0 mg/kg/injection, schedule: Q01DX007 (ip), vehicle: Klucel (hydroxypropylcellulose) (HPC) 91 % of control

O=c1cc[nH]c(=O)[nH]1
inactive: dose: 32.0 mg/kg/injection, schedule: Q01DX009 (ip), vehicle: Klucel (hydroxypropylcellulose) (HPC) 105 % of control | dose: 64.0 mg/kg/injection, schedule: Q01DX009 (ip), vehicle: Klucel (hydroxypropylcellulose) (HPC) 96 % of control | dose: 128.0 mg/kg/injection, schedule: Q01DX009 (ip), vehicle: Klucel (hydroxypropylcellulose) (HPC) 102 % of control | dose: 256.0 mg/kg/injection, schedule: Q01DX009 (ip), vehicle: Klucel (hydroxypropylcellulose) (HPC) 86 % of control | dose: 512.0 mg/kg/injection, schedule: Q01DX009 (ip), vehicle: Klucel (hydroxypropylcellulose) (HPC) 111 % of control

CC[C@H]1CN2CCc3cc(OC)c(OC)cc3[C@@H]2C[C@@H]1C[C@H]1NCCc2cc(O)c(OC)cc21
inactive: [16] 109 % of control | [17] 100 % of control | dose: 8.0 mg/kg/injection, schedule: Q01DX009 (ip), vehicle: saline 116 % of control | [18] 116 % of control

S=C(Nc1ccc(Cl)c(Cl)c1)N1c2ccccc2-n2cccc2C1c1cccnc1 (stereo not drawn)
inactive: [21] 93 % of control and 105 % of control | [13] 99 % of control and 91 % of control | [1] 98 % of control and 100 % of control | [2] 94 % of control and 101 % of control | [14] 105 % of control and 110 % of control | dose: 400.0 mg/kg/injection, schedule: Q01DX009 (ip), vehicle: Klucel (hydroxypropylcellulose) (HPC) 115 % of control

CN1CCN(c2ccc3nc(-c4ccc5nc(-c6ccc(O)cc6)[nH]c5c4)[nH]c3c2)CC1
inactive: dose: 6.0 mg/kg/injection, schedule: Q01DX009 (ip), vehicle: saline 95 % of control | dose: 12.0 mg/kg/injection, schedule: Q01DX009 (ip), vehicle: saline 98 % of control | [4] 120 % of control | [10] 102 % of control | [11] 100 % of control

Nc1ccn(C2OC(COC(=O)C34CC5CC(CC(C5)C3)C4)C(O)C2O)c(=O)n1 (stereo not drawn)
inactive: [5] 116 % of control

O=C(O)CC[S-].[Ag+]
inactive: [7] 99 % of control | [8] 102 % of control | [9] 91 % of control

CN(C)c1ccc2c(N(C)C)cc(N(C)C)nc2c1
inactive: dose: 1.56 mg/kg/injection, schedule: Q01DX009 (ip), vehicle: Klucel (hydroxypropylcellulose) (HPC) 98 % of control | [19] 95 % of control | [20] 102 % of control | [21] 99 % of control | [13] 111 % of control
